The text below walks through data of patent US9718828B2 (MERCK SHARP & DOHME CORP., priority 2011, dated 2017).

Where only a bound is given, the exact number is not on record here.

Sequence of hBTK (full-length BTK, 6HIS-tag cleaved) (Q06187 whole entry): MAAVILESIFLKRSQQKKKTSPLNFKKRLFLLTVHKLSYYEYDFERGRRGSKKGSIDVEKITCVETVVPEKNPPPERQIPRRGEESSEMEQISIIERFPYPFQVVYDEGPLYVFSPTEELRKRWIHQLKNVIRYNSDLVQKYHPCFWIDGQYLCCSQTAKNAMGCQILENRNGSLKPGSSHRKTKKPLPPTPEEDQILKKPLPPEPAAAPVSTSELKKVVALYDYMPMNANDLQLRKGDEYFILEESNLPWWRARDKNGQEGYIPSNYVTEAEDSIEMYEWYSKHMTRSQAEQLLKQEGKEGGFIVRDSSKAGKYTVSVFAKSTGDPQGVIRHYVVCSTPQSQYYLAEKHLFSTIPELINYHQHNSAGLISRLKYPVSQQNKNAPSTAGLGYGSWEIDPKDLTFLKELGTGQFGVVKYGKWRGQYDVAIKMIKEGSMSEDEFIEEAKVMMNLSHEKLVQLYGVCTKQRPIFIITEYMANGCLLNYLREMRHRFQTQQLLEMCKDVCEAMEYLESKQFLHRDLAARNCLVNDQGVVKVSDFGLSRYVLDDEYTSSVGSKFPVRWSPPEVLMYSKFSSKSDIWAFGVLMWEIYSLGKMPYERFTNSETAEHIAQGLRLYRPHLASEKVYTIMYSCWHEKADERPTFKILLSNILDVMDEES

One test has as its target hBTK (full-length BTK, 6HIS-tag cleaved) (Homo sapiens (Human), UniProt Q06187). The test can be described thus: BTK enzymatic activity, LANCE TR-FRET assay (Assay Method C). The test is classed as biochemical. The settings on record: LANCE TR-FRET, 50 pM hBTK, 25 μM ATP; class 100-1000 is given as ≧100 nM-<1 μM; read-out: IC50 Btk activity values - Assay Method C. On the technique in general: TR-FRET usually uses a lanthanide donor and a delayed reading to cut background.
With `CC1(CN2CCC[C@@H](c3nc(-c4ccc(C(=O)Nc5cc(C(F)(F)F)ccn5)cc4)c4c(N)nccn34)C2)COC1` [Example 338, 4-(8-amino-3-{(3R)-[(3-methyloxetan-3-yl)methyl]piperidin-3-yl}imidazo[1,5-a]pyrazin-1-yl)-N-[4-(trifluoromethyl)pyridin-2-yl]benzamide], the IC50 is less than 10 nM.
The same measure, in the same setting: with `CCOCC(=O)N1CCC[C@@H](c2nc(-c3ccc(C(=O)Nc4cc(C(F)(F)F)ccn4)cc3)c3c(N)nccn23)C1` [Example 339, 4-{8-amino-3-[(3R)-1-(ethoxyacetyl)piperidin-3-yl]imidazo[1,5-a]pyrazin-1-yl}-N-[4-(trifluoromethyl)pyridin-2-yl]benzamide] the figure was less than 10 nM.
Consider `COCC(=O)N1CCC[C@@H](c2nc(-c3ccc(C(=O)Nc4cc(C(F)(F)F)ccn4)cc3)c3c(N)nccn23)C1` [Example 340, 4-{8-amino-3-[(3R)-1-(methoxyacetyl)piperidin-3-yl]imidazo[1,5-a]pyrazin-1-yl}-N-[4-(trifluoromethyl)pyridin-2-yl]benzamide], for which the IC50 is less than 10 nM.
For `CN1CCC[C@H]1C(=O)N1CCC[C@@H](c2nc(-c3ccc(C(=O)Nc4cc(C(F)(F)F)ccn4)cc3)c3c(N)nccn23)C1` [Example 341, 4-{8-amino-3-[(3R)-1-(1-methyl-L-prolyl)piperidin-3-yl]imidazo[1,5-a]pyrazin-1-yl}-N-[4-(trifluoromethyl)pyridin-2-yl]benzamide], the IC50 was less than 10 nM.
For the molecule `Nc1nccn2c([C@@H]3CCCN(C(=O)C4(O)CC4)C3)nc(-c3ccc(C(=O)Nc4cc(C(F)(F)F)ccn4)cc3)c12` [Example 342, 4-(8-amino-3-{(3R)-1-[(1-hydroxycyclopropyl)carbonyl]piperidin-3-yl}imidazo[1,5-a]pyrazin-1-yl)-N-[4-(trifluoromethyl)pyridin-2-yl]benzamide], the IC50 is less than 10 nM.
`CCC(O)C(=O)N1CCC[C@@H](c2nc(-c3ccc(C(=O)Nc4cc(C(F)(F)F)ccn4)cc3)c3c(N)nccn23)C1` (stereo partly drawn) [Example 343, 4-{8-amino-3-[(3R)-1-(2-hydroxybutanoyl)piperidin-3-yl]imidazo[1,5-a]pyrazin-1-yl}-N-[4-(trifluoromethyl)pyridin-2-yl]benzamide]: the IC50 was less than 10 nM.
For `Nc1nccn2c([C@@H]3CCCN(C(=O)C4CC4(F)F)C3)nc(-c3ccc(C(=O)Nc4cc(C(F)(F)F)ccn4)cc3)c12` (stereo partly drawn) [Example 344, 4-(8-amino-3-{(3R)-1-[(2,2-difluorocyclopropyl)carbonyl]piperidin-3-yl}imidazo[1,5-a]pyrazin-1-yl)-N-[4-(trifluoromethyl)pyridin-2-yl]benzamide], the IC50 was less than 10 nM.
On to `C[C@H](O)C(=O)N1CCC[C@@H](c2nc(-c3ccc(C(=O)Nc4cc(C(F)(F)F)ccn4)cc3)c3c(N)nccn23)C1` [Example 345, 4-(8-amino-3-{(3R)-1-[(2S)-2-hydroxypropanoyl]piperidin-3-yl}imidazo[1,5-a]pyrazin-1-yl)-N-[4-(trifluoromethyl)pyridin-2-yl]benzamide], for which the half-inhibitory concentration (IC50) was less than 10 nM.
For `C[C@@H](O)C(=O)N1CCC[C@@H](c2nc(-c3ccc(C(=O)Nc4cc(C(F)(F)F)ccn4)cc3)c3c(N)nccn23)C1` [Example 346, 4-(8-amino-3-{(3R)-1-[(2R)-2-hydroxypropanoyl]piperidin-3-yl}imidazo[1,5-a]pyrazin-1-yl)-N-[4-(trifluoromethyl)pyridin-2-yl]benzamide], the IC50 is less than 10 nM.
For `CN(C)CC(=O)N1CCC[C@@H](c2nc(-c3ccc(C(=O)Nc4cc(C(F)(F)F)ccn4)cc3)c3c(N)nccn23)C1` [Example 347, 4-{8-amino-3-[(3R)-1-(N,N-dimethylglycyl)piperidin-3-yl]imidazo[1,5-a]pyrazin-1-yl}-N-[4-(trifluoromethyl)pyridin-2-yl]benzamide], the IC50 was less than 10 nM.
As to `CN1CC[C@@H](C(=O)N2CCC[C@@H](c3nc(-c4ccc(C(=O)Nc5cc(C(F)(F)F)ccn5)cc4)c4c(N)nccn34)C2)C1` [Example 348, 4-(8-amino-3-[(3R)-1-{[(3R)-1-methylpyrrolidin-3-yl]carbonyl}piperidin-3-yl]imidazo[1,5-a]pyrazin-1-yl}-N-[4-(trifluoromethyl)pyridin-2-yl]benzamide], the half-maximal inhibitory concentration (IC50) is less than 10 nM.
On to `CS(=O)(=O)CC(=O)N1CCC[C@@H](c2nc(-c3ccc(C(=O)Nc4cc(C(F)(F)F)ccn4)cc3)c3c(N)nccn23)C1` [Example 349, 4-(8-amino-3-{(3R)-1-[(methylsulfonyl)acetyl]piperidin-3-yl}imidazo[1,5-a]pyrazin-1-yl)-N-[4-(trifluoromethyl)pyridin-2-yl]benzamide], for which the IC50 was less than 10 nM.
For the molecule `CC1(C(=O)N2CCC[C@@H](c3nc(-c4ccc(C(=O)Nc5cscn5)cc4)c4c(N)nccn34)C2)COC1` [Example 350, 4-(8-amino-3-{(3R)-1-[(3-methyloxetan-3-yl)carbonyl]piperidin-3-yl}imidazo[1,5-a]pyrazin-1-yl)-N-1,3-thiazol-4-ylbenzamide], the IC50 lay within 10 to 100 nM.
Consider `CC1(C(=O)N2CCC[C@@H](c3nc(-c4ccc(C(=O)Nc5ccc(F)cn5)cc4)c4c(N)nccn34)C2)COC1` [Example 351, 4-(8-amino-3-{(3R)-1-[(3-methyloxetan-3-yl)carbonyl]piperidin-3-yl}imidazo[1,5-a]pyrazin-1-yl)-N-(5-fluoropyridin-2-yl)benzamide], for which the IC50 is 10 to 100 nM.
With `Cc1ccnc(NC(=O)c2ccc(-c3nc([C@@H]4CCCN(C(=O)C5(C)COC5)C4)n4ccnc(N)c34)cc2)c1` [Example 352, 4-(8-amino-3-{(3R)-1-[(3-methyloxetan-3-yl)carbonyl]piperidin-3-yl}imidazo[1,5-a]pyrazin-1-yl)-N-(4-methylpyridin-2-yl)benzamide], the IC50 was less than 10 nM.
In the case of `Cc1cc(NC(=O)c2ccc(-c3nc([C@@H]4CCCN(C(=O)C5(C)COC5)C4)n4ccnc(N)c34)cc2)no1` [Example 353, 4-(8-amino-3-{(3R)-1-[(3-methyloxetan-3-yl)carbonyl]piperidin-3-yl}imidazo[1,5-a]pyrazin-1-yl)-N-(5-methylisoxazol-3-yl)benzamide], the IC50 was 100 to 1000 nM.
Turning to `CC1(C(=O)N2CCC[C@@H](c3nc(-c4ccc(C(=O)Nc5cc(C6CCC6)ccn5)cc4)c4c(N)nccn34)C2)COC1` [Example 354, 4-(8-amino-3-{(3R)-1-[(3-methyloxetan-3-yl)carbonyl]piperidin-3-yl}imidazo[1,5-a]pyrazin-1-yl)-N-(4-cyclobutylpyridin-2-yl)benzamide], the IC50 was less than 10 nM.
On to `CC1(C(=O)N2CCC[C@@H](c3nc(-c4ccc(C(=O)Nc5ccc(C(F)F)cn5)cc4)c4c(N)nccn34)C2)COC1` [Example 355, 4-(8-amino-3-{(3R)-1-[(3-methyloxetan-3-yl)carbonyl]piperidin-3-yl}imidazo[1,5-a]pyrazin-1-yl)-N-[5-(difluoromethyl)pyridin-2-yl]benzamide], for which the 50% inhibitory concentration (IC50) was less than 10 nM.
With `Cc1ccc(NC(=O)c2ccc(-c3nc([C@@H]4CCCN(C(=O)C5(C)COC5)C4)n4ccnc(N)c34)cc2)nc1` [Example 356, 4-(8-amino-3-{(3R)-1-[(3-methyloxetan-3-yl)carbonyl]piperidin-3-yl}imidazo[1,5-a]pyrazin-1-yl)-N-(5-methylpyridin-2-yl)benzamide], the half-inhibitory concentration (IC50) is less than 10 nM.
As for `CC1(C(=O)N2CCC[C@@H](c3nc(-c4ccc(C(=O)Nc5cccnn5)cc4)c4c(N)nccn34)C2)COC1` [Example 357, 4-(8-amino-3-{(3R)-1-[(3-methyloxetan-3-yl)carbonyl]piperidin-3-yl}imidazo[1,5-a]pyrazin-1-yl)-N-pyridazin-3-ylbenzamide], the IC50 lay in the range of 100 to 1000 nM.
In the case of `CC1(C(=O)N2CCC[C@@H](c3nc(-c4ccc(C(=O)Nc5ccc(Cl)cn5)cc4)c4c(N)nccn34)C2)COC1` [Example 358, 4-(8-amino-3-{(3R)-1-[(3-methyloxetan-3-yl)carbonyl]piperidin-3-yl}imidazo[1,5-a]pyrazin-1-yl)-N-(5-chloropyridin-2-yl)benzamide], the IC50 is less than 10 nM.
On to `CC1(C(=O)N2CCC[C@@H](c3nc(-c4ccc(C(=O)Nc5ccc(C(F)(F)F)cn5)cc4)c4c(N)nccn34)C2)COC1` [Example 359, 4-(8-amino-3-{(3R)-1-[(3-methyloxetan-3-yl)carbonyl]piperidin-3-yl}imidazo[1,5-a]pyrazin-1-yl)-N-[5-(trifluoromethyl)pyridin-2-yl]benzamide], for which the half-maximal inhibitory concentration (IC50) was in the range of 10 to 100 nM.
For the molecule `Cc1cc(NC(=O)c2ccc(-c3nc([C@@H]4CCCN(C(=O)C5(C)COC5)C4)n4ccnc(N)c34)cc2)ncc1F` [Example 360, 4-(8-amino-3-{(3R)-1-[(3-methyloxetan-3-yl)carbonyl]piperidin-3-yl}imidazo[1,5-a]pyrazin-1-yl)-N-(5-fluoro-4-methylpyridin-2-yl)benzamide], the IC50 is less than 10 nM.
For `COc1ccnc(NC(=O)c2ccc(-c3nc([C@@H]4CCCN(C(=O)C5(C)COC5)C4)n4ccnc(N)c34)cc2)n1` [Example 361, 4-(8-amino-3-{(3R)-1-[(3-methyloxetan-3-yl)carbonyl]piperidin-3-yl}imidazo[1,5-a]pyrazin-1-yl)-N-(4-methoxypyrimidin-2-yl)benzamide], the IC50 is 100 to 1000 nM.
In the case of `CCc1ccnc(NC(=O)c2ccc(-c3nc([C@@H]4CCCN(C(=O)C5(C)COC5)C4)n4ccnc(N)c34)cc2)c1` [Example 362, 4-(8-amino-3-{(3R)-1-[(3-methyloxetan-3-yl)carbonyl]piperidin-3-yl}imidazo[1,5-a]pyrazin-1-yl)-N-(4-ethylpyridin-2-yl)benzamide], the half-maximal inhibitory concentration (IC50) is less than 10 nM.
Turning to `CC1(C(=O)N2CCC[C@@H](c3nc(-c4ccc(C(=O)Nc5ncc6c(n5)CCC6)cc4)c4c(N)nccn34)C2)COC1` [Example 364, 4-(8-amino-3-{(3R)-1-[(3-methyloxetan-3-yl)carbonyl]piperidin-3-yl}imidazo[1,5-a]pyrazin-1-yl)-N-(6,7-dihydro-5H-cyclopenta[d]pyrimidin-2-yl)benzamide], the IC50 fell in the range of 10 to 100 nM.

Still in this test, the particulars now being: Table D; Assay Method C (LANCE TR-FRET), 50 pM hBTK, 25 μM ATP; read-out: IC50 BTK activity value.
Consider `C[C@H](O)C(=O)N1CCC[C@@H](c2nc(-c3ccc(C(=O)Nc4cc(C(F)(F)F)ccn4)cc3)c3c(N)nccn23)C1` [Example 345, 4-(8-amino-3-{(3R)-1-[(2S)-2-hydroxypropanoyl]piperidin-3-yl}imidazo[1,5-a]pyrazin-1-yl)-N-[4-(trifluoromethyl)pyridin-2-yl]benzamide], for which the IC50 turned out to be 0.472 nM.
On to `C[C@@H](O)C(=O)N1CCC[C@@H](c2nc(-c3ccc(C(=O)Nc4cc(C(F)(F)F)ccn4)cc3)c3c(N)nccn23)C1` [Example 346, 4-(8-amino-3-{(3R)-1-[(2R)-2-hydroxypropanoyl]piperidin-3-yl}imidazo[1,5-a]pyrazin-1-yl)-N-[4-(trifluoromethyl)pyridin-2-yl]benzamide], for which the IC50 stood at 0.219 nM.
In the case of `CC1(C(=O)N2CCC[C@@H](c3nc(-c4ccc(C(=O)Nc5ccc(C(F)F)cn5)cc4)c4c(N)nccn34)C2)COC1` [Example 355, 4-(8-amino-3-{(3R)-1-[(3-methyloxetan-3-yl)carbonyl]piperidin-3-yl}imidazo[1,5-a]pyrazin-1-yl)-N-[5-(difluoromethyl)pyridin-2-yl]benzamide], the IC50 was 1.33 nM.

A word on the IC50: it is the concentration that inhibits the measured activity by half.
